This note sets out measurements from patent publication US12038430B2, “Methods for high-content drug screening” (The Regents of the University of California, priority 2018, dated 2024).

The test concerns human wildtype CFTR. Kind of test: Iodide transport / YFP quenching CFTR activation assay in FRT cells on micropillar array. Type of test: cell-based. Conditions: 10 μM forskolin in alginate hydrogel, 10 min contact, FRT cells expressing human CFTR and YFP, versus neighboring area without forskolin. The method, then:
FRT cells stably expressing human wildtype CFTR and yellow fluorescent protein YFP-H148/I152L were cultured on polyester transwell filters until they formed a tight monolayer (electrical resistance >3 kOhm·cm^2), as previously described in the art. The cell culture medium was then replaced with a viscous solution consisting of 2% methylcellulose (about 41,000 daltons, Sigma-Aldrich) in PBS. The cell layer was contacted with a 10×10 micropillar array for 10 min, and then the viscous solution was rinsed. For transport measurement, an iodide-containing solution (PBS with 120 mM chloride was replaced by iodide) was added manually on top of the cell layer. YFP fluorescence of the entire cell culture area was monitored for 5 min at 10 Hz using a 2× magnification lens (CFI Plan Apo Lambda 2X, Nikon, Melville, NY) with EMCCD camera detector (C9100, Hamamatsu). YFP fluorescence is reduced as the added extracellular iodide is transported into cell cytoplasm through activated CFTR. The time course of fluorescence for each of the 100 locations, each integrated over the 100-μm diameter circular cell area overlying the corresponding micropillar well, was determined using ImageJ. […]
CFTR function was determined from the kinetics of YFP fluorescence quenching following addition of an iodide-containing solution on the apical surface of the cell monolayer. […]

With `C=C[C@@]1(C)CC(=O)[C@]2(O)[C@@]3(C)[C@@H](O)CCC(C)(C)[C@@H]3[C@H](O)[C@H](OC(C)=O)[C@@]2(C)O1` [Forskolin, forskolin], the “increase of initial curve slope of YFP fluorescence quenching (CFTR activation)” value is on record as “more than 14 fold”.
